Data as given in patent US12617817B2, “Carrier peptide fragment and use thereof” (TOAGOSEI CO., LTD., priority 2020, dated 2026).
FAM = fluorescein amidite (fluorescent dye, FAM)

Test system: HeLa cells
Test: Evaluating cell penetrating ability by flow cytometry (FAM fluorescence) in HeLa cells
Type: cell-based, human
Conditions: for MFI (mean fluorescent intensity): additive 10 μM, 0.5% DMSO, 20 hours incubation at 37° C., flow cytometry FL2 detector, average of triplicate; for shift of flow cytometry histogram on the X-axis (fluorescent intensity) in comparison with Example 3 (only FAM): FIG. 1
Description: The cell penetrating ability of sample 1 and sample 2 was evaluated using HeLa cells (cell line established from human cervical cancer cells). In Table 2, Example 1 indicates a test of addition of sample 1 to a culture solution of HeLa cells, Example 2 indicates a test of addition of sample 2, Example 3 indicates a test of addition of FAM diluted with DMSO, and Example 4 indicates a test of addition of DMSO only.
HeLa cells were cultured in an ordinary culture medium, DMEM (Dulbecco's modified Eagle's medium, manufactured by Fuji Film Wako Pure Chemical Industries, Cat. No. 043-30085) containing 10% FBS (fetal bovine serum).
HeLa cells adhering to the culture plate were washed with PBS, 0.25% trypsin/EDTA solution was added, and the cells were incubated for 3 minutes at 37° C. After incubation, the same DMEM medium containing 10% FBS was added to deactivate the trypsin, and the cells were precipitated by 5 minutes of centrifugation at 150×g. The supernatant produced by centrifugation was removed, and the same DMEM containing 10% FBS was added to the precipitate (cell pellet) to prepare an approximately 1×10^5 cells/mL cell suspension. 2 mL of the cell suspension was added to the wells of a commercial 6-well plate (Iwaki microplate commercially available from AGC techno glass Co., Ltd) to seed the cells at a rate of approximately 2×10^5 cells/well. This was then cultured for 3 hours at 37° C. under conditions of 5% CO2, causing the cells to adhere to the bottom of the wells. Because the cell penetrating ability evaluation is performed in triplicate, cells were seeded in 3 wells for the test of Example 1, and the following operations were performed on each well.
Next, the above 2 mM sample solution 1 was diluted with the above DMEM containing 10% FBS to prepare a sample solution 1 in which the concentration of the sample 1 was 20 μM. 1 mL of the culture supernatant was removed from each well after the 3 hours of culture, and 1 mL of 20 μM sample solution 1 was added to the well so that the sample 1 concentration of the culture solution in the well was 10 μM and the DMSO concentration was 0.5%. This was then incubated for 20 hours at 37° C. under conditions of 5% CO2. After this 20-hour incubation, the culture supernatant was removed from the well, and the cells in the well were washed twice with 1 mL of PBS. 200 μL of 0.25% trypsin/EDTA solution was then added to the well, and the cells were incubated for 3 minutes at 37° C. After this incubation, 400 μL of the above DMEM containing 10% FBS was added to the well to deactivate the trypsin, after which the cell suspension in the well was transferred to a tube, and the cells were collected. 600 μL of PBS was then added to each well to wash the well. The PBS in the well was then transferred to the above tube to collect the cells remaining in the well in the tube. This tube was centrifuged for 5 minutes under conditions of 210×g at 4° C. After centrifugation the supernatant was removed, and the precipitate (cell pellet) was suspended (washed) in 1 mL of PBS and centrifuged under the same conditions. This operation was repeated twice to remove the supernatant and obtain cells (a cell pellet) that had been cultured in medium containing the sample 1.
The cells (cell pellet) obtained above were analyzed by flow cytometry to assess the cell penetrating ability of the sample 1. A flow cytometer (On-Chip Biotechnologies Co., Ltd.) was used for the analysis.
The cell pellet obtained above was suspended in 50 μL of PBS for purposes of this analysis. A further 50 μL of 2× sample buffer for flow cytometry was added to this suspension to prepare a cell suspension for analysis.
Gating was performed with the flow cytometer based on forward scatter (FSC) and side scatter (SSC), a gate was set for the cell population under analysis, and the cell population within this gate was measured for fluorescent intensity. Analysis was performed so that the cell population composed of at least 5,000 cells. […]

Row | Substance | MFI (mean fluorescent intensity) | shift of flow cytometry histogram on the X-axis (fluorescent intensity) in comparison with Example 3 (only FAM) (10 μM, 20 hours) | efficiency (cell penetrating ability), times higher than Example 2, from MFI values (10 μM, 20 hours, comparison of MFI of Example 1 with Example 2) [times]
1 | 5(6)-carboxyfluorescein [Example 3] | 6 | – | –
2 | FAM-KKRTLRKNDRKKR-CONH2 ({FAM}-KKRTLRKNDRKKR-NH2) [Example 2] | 15.5 | shifted to the right | –
3 | FAM-KKRTLRKSNRKKR-CONH2 ({FAM}-KKRTLRKSNRKKR-NH2) [Example 1] | 62 | shifted to the right | 4
